Measured values as given in patent EP2228429A1, “Shading dye and catalyst combination” (Unilever PLC, priority 2009, dated 2010).

Tests used:
[1] = Example 2: shading of cotton washed with Persil Colour powder containing acid blue 25, catalyst and hydrogen peroxide (reflectometer, delta E); set-up: key: reflectometer delta E vs cloth washed without added dye or bleach; conditions: 0.3% acid blue 25 in powder, 2.5g/L, 30°C, 30 minutes
Protocol: Various amounts of catalyst AC and DC were separately added to Persil Colour (TM) washing powder, such that when the powder was dosed at 2.5g/L a 1, 2, 4 and 8 micromolar solution of the catalysts were obtained. Persil Colour is a commercial washing powder containing 5-15% anionic surfactant and non-ionic surfactant, 15-30% zeolite and less than 5% soap, polycarboxylate and phosphate. It also contains enzymes. 0.3% of the dye acid blue 25 was also added to the powder. The so-created powders were used to wash bleach non-mercerised woven cotton at 30°C, for 30 minutes with a liquor to cloth ration of 30:1 and 2.5g/L powder. Various amounts of hydrogen peroxide was added to activate the catalyst. Following the wash the clothes were rinsed dried and the shading on the cloth measured using a reflectometer and expressed as the delta E values relative to cloth washed with Persil Colour without added dye or bleach system.

[2] = Example 3: bleaching of BC1 stain monitor cloth with catalyst AC and hydrogen peroxide (delta E); conditions: pH=10, 0.5g/L LAS, 30°C, 30 minutes
Protocol: BC1 (fixed tea stain) bleachable stain test monitor cloth was washed in a bicarbonate buffer (pH=10) with 0.5g/L LAS surfactant, a Liquor to Cloth ratio of 60:1, a temperature of 30°C and a wash time of 30 minutes. The experiment was repeated with various levels of catalyst AC and hydrogen peroxide. The final colour of the cloth was measured and expressed as the delta E relative to a clean piece of cotton. Lower values indicate effective bleaching of the stain.

[3] = Example 7: shading of white cotton washed with Persil Colour containing direct violet 51 and bleach system; conditions: 100 ppb direct violet 51, 5g/L Persil Colour, 40°C, 30 minutes
Protocol: (§1) White non-mercerised cotton sheeting was washed at 40°C in 5g/L Persil Colour for 30 minutes with a liquor to cloth ratio of 60:1. Persil Colour is a zeolite/anionic/non-ionic surfactant based washing powder. Direct Violet 51 was added to the powder such that 100 ppb of direct violet 51 was in the wash liquor.
(§2) The experiment was repeated with the addition of 10 micromolar catalyst with 10 millimolar peroxide and 2 micromolar catalyst with 2 millimolar peroxide. Following rinsing and drying the colour of the cloth was measured relative to a white cotton control cloth washed without addition of direct violet 51.

[4] = Example 7: bleaching of BC1 monitor washed with Persil Colour and bleach system; conditions: no direct violet 51, liquor to cloth ratio 120:1
Protocol: as §1, §2
The experiment was then repeated using a BC1 model tea bleach monitor and a liquor to cloth ratio of 120:1. For clarity no direct violet 51 was added to the Persil Colour in this case.

[5] = Example 1: bleaching of shading dyes in pH=10 buffer by catalyst AC and hydrogen peroxide, from optical density; conditions: after 30 minutes at 20 °C; for % bleaching (a): (a) 1 micromolar AC, 1 millimolar hydrogen peroxide; for % bleaching (b): (b) 4 micromolar AC, 4 millimolar hydrogen peroxide
Protocol: A selection of shading dyes, which deposit onto cotton from wash solutions and have varying structures, was made. Solution of these dyes were made in pH=10 buffer such that the optical density at 1 cm was approximately 1. To this solution the catalyst AC was added alongside hydrogen peroxide such that the concentrations were: • (a) 1 micromolar AC, 1 millimolar hydrogen peroxide • (b) 4 micromolar AC, 4 millimolar hydrogen peroxide The optical density of the dye was measured at the beginning of the experiment and after 30 minutes at 20 °C. From these measurements the % of dye bleaching was calculated using the equation % bleaching = 100 x (ODinitial-OD30 minutes)/ODinitial [formula]

[6] = Example 5: dye bleaching in solution at pH=10 by catalyst and peroxide
Description: Bleaching was much slower with […] 2 millimolar peroxide.

[7] = Example 6: take up of hydrophobic shading dyes by polyester in a wash with catalyst and hydrogen peroxide (delta E); conditions: 0.2ppm dye, 1.8g/L powder, 30 minutes at 20°C
Protocol: White knitted polyester was washed for 30 minutes at 20°C in 1.8g/L of Brihlante™ washng powder (ex Brasil) with a liquor to cloth ration of 100:1. This is a phosphate/anionic surfactant based powder. Various levels of catalyst BC and hydrogen peroxide was added to the wash liquor alongside 0.2ppm of the hydrophobic shading dyes disperse blue 79:1 (azo dye) and solvent violet 13 (anthraquinone dye). The take up of the hydrophobic shading by the polyester was measured as the delta E relative to white cotton and the results shown below.

[8] = Example 4: bleaching of black tea stain on cotton sheeting; conditions: pH=10 solution, 2 micromolar DC and 2 millimolar peroxide; versus control with 2 micromolar Mn(II) and 2 millimolar peroxide
Protocol: Black tea beverage was created by placing 1 PG Tips pyramid tea bag in 400ml of boiled ultrapure water for 5 minutes. The tea bag was then removed and the beverage cooled to room temperature. Non-mercerised non-fluorescent white cotton sheeting was dipped in the cold tea and removed. The cloth was left to dry for 1 day in the dark, then used for experiments.

[9] = 1 micromolar catalyst, 1 millimolar H2O2, relative to cloth washed without dye or bleach system
[10] = 2 micromolar catalyst, 2 millimolar H2O2
[11] = 4 micromolar catalyst, 4 millimolar H2O2
[12] = 8 micromolar catalyst, 8 millimolar H2O2
[13] = 2 micromolar catalyst, 2 millimolar H2O2, colour relative to white cotton control washed without dye
[14] = 10 micromolar catalyst, 10 millimolar H2O2
[15] = pH=10, 2 micromolar catalyst with 2 millimolar peroxide
[16] = pH=10, 10 micromolar catalyst with 10 millimolar peroxide
[17] = 0 micromolar catalyst, 0 millimolar H2O2
[18] = 1 micromolar catalyst, 1 millimolar H2O2
[19] = 2 millimolar H2O2 without catalyst
[20] = 10 millimolar H2O2 without catalyst

**Q.** What does the source list for COC(=O)C12CN(C(C)CN(C)C)CC(C(=O)OC)(C1=O)C(c1ccccn1)N(C)C2c1ccccn1 (stereo not shown) [AC]?
**A.** Delta E [1, 9]: 5.1; Delta E [1, 10]: 2.0; Delta E [1, 11]: 0.4; Delta E [1, 12]: 0.3; Delta E ([2]; 1 micromolar AC, 1 millimolar H2O2, relative to clean cotton, lower = effective bleaching): 17.0; Delta E ([2]; 1 micromolar AC, 2 millimolar H2O2): 16.2; Delta E ([2]; 2 micromolar AC, 1 millimolar H2O2): 15.9; Delta E ([2]; 2 micromolar AC, 2 millimolar H2O2): 14.6; White cotton [3, 13]: 1.5; White cotton [3, 14]: 0.5; BC1 [4, 10]: 16.5; BC1 [4, 14]: 10.9

**Q.** With Nc1c(N=Nc2ccc([N+](=O)[O-])cc2)c(S(=O)(=O)[O-])cc2cc(S(=O)(=O)[O-])c(N=Nc3ccccc3)c(O)c12.[Na+].[Na+] [Acid black 1] as the compound, how does the “% bleaching (a)” value [5] read?
**A.** Its value is 27%.

**Q.** What about the “% bleaching (b)” value [5] of the same compound?
**A.** The value was 53%.

**Q.** Which “% bleaching (a)” value [5] does the source give for Nc1c(S(=O)(=O)[O-])cc(Nc2ccccc2)c2c1C(=O)c1ccccc1C2=O.[Na+] [Acid blue 25] here?
**A.** The value was 66%.

**Q.** And the “% bleaching (b)” value [5]?
**A.** Its value is 96%.

**Q.** Which results are given for O=S(=O)([O-])c1cccc(N=Nc2ccc(N=Nc3ccc(Nc4ccccc4)c4c(S(=O)(=O)[O-])cccc34)c3ccccc23)c1.[Na+].[Na+] [Acid blue 113]?
**A.** % bleaching (a) [5]: 79%; % bleaching (b) [5]: 99%

**Q.** Which “bleaching of Acid blue 25 in solution” value [6, 15] does the source give for COC(=O)C12CN(CCN(C)C)CC(C(=O)OC)(C1=O)C(c1ccccn1)N(C)C2c1ccccn1 (stereo not shown) [BC] here?
**A.** The value was “much slower”.

**Q.** And the “bleaching of Direct violet 51 in solution” value [6, 15]?
**A.** Its value is “much slower”.

**Q.** What about the “bleaching of Acid blue 25 in solution” value [6, 16] of the same compound?
**A.** Its value is “effectively bleached”.

**Q.** And the “bleaching of Direct violet 51 in solution” value [6, 16]?
**A.** Its value is “effectively bleached”.

**Q.** For COc1cc(N=Nc2c(Br)cc([N+](=O)[O-])cc2[N+](=O)[O-])c(NC(C)=O)cc1N(CCOC(C)=O)CCOC(C)=O [Blue 79:1, disperse blue 79:1], which “Delta E” value [7, 17] is on record?
**A.** The value was 2.8.

**Q.** What about the “Delta E” value [7, 18] of the same compound?
**A.** Its value is 2.8.

**Q.** What about the “Delta E” value [7, 14] of the same compound?
**A.** The value was 2.3.

**Q.** For COC(=O)C12CN(CCN3CCOCC3)CC(C(=O)OC)(C1=O)C(c1ccccn1)N(C)C2c1ccccn1 (stereo not shown) [CC], which “bleaching of Acid blue 25 in solution” value [6, 15] is on record?
**A.** Its value is “much slower”.

**Q.** And the “bleaching of Direct violet 51 in solution” value [6, 15]?
**A.** The value was “much slower”.

**Q.** And the “bleaching of Acid blue 25 in solution” value [6, 16]?
**A.** Its value is “effectively bleached”.

**Q.** And the “bleaching of Direct violet 51 in solution” value [6, 16]?
**A.** Its value is “effectively bleached”.

**Q.** With OO [Catalyst H2O2, hydrogen peroxide] as the compound, how does the “Delta E” value ([2]; 0 micromolar AC, 1 millimolar H2O2 alone) read?
**A.** Its value is 18.5.

**Q.** And the “Delta E” value ([2]; 0 micromolar AC, 2 millimolar H2O2 alone)?
**A.** The value was 18.1.

**Q.** What about the White cotton [3, 19] of the same compound?
**A.** The White cotton was 1.5.

**Q.** What about the White cotton [3, 20] of the same compound?
**A.** Its White cotton is 1.4.

**Q.** And the BC1 [4, 19]?
**A.** The BC1 was 19.3.

**Q.** What about the BC1 [4, 20] of the same compound?
**A.** The BC1 was 18.9.

**Q.** With Oc1cc(-c2ccccn2)nc(-c2ccccn2)c1 [DC] as the compound, how does the “Delta E” value [1, 9] read?
**A.** Its value is 12.3.

**Q.** What about the “Delta E” value [1, 10] of the same compound?
**A.** The value was 12.2.

**Q.** And the “Delta E” value [1, 11]?
**A.** Its value is 12.0.

**Q.** What about the “Delta E” value [1, 12] of the same compound?
**A.** Its value is 11.7.

**Q.** And the “bleaching of the tea stain” value [8]?
**A.** Its value is “significantly above that of a control solution”.

**Q.** Which “% bleaching (a)” value [5] does the source give for COc1cc(N=Nc2c(C)cc(C)cc2S(=O)(=O)[O-])c(C)cc1N=Nc1c(S(=O)(=O)[O-])cc2cc(Nc3ccccc3)ccc2c1O.[Na+].[Na+] [Direct violet 51] here?
**A.** Its value is 1%.

**Q.** What about the “% bleaching (b)” value [5] of the same compound?
**A.** The value was 29%.

**Q.** Which White cotton [3, 13] does the source give for COC(=O)C12CN(CCN3CCCC3)CC(C(=O)OC)(C1=O)C(c1ccccn1)N(C)C2c1ccccn1 (stereo not shown) [EC] here?
**A.** Its White cotton is 1.5.

**Q.** What about the White cotton [3, 14] of the same compound?
**A.** The White cotton was 0.7.

**Q.** What about the BC1 [4, 10] of the same compound?
**A.** Its BC1 is 17.5.

**Q.** And the BC1 [4, 14]?
**A.** Its BC1 is 13.1.

**Q.** Which “Delta E” value [7, 17] does the source give for Cc1ccc(Nc2ccc(O)c3c2C(=O)c2ccccc2C3=O)cc1 [Violet 13, solvent violet 13] here?
**A.** Its value is 4.0.

**Q.** What about the “Delta E” value [7, 18] of the same compound?
**A.** Its value is 1.6.

**Q.** What about the “Delta E” value [7, 14] of the same compound?
**A.** Its value is 0.2.
